From patent US20070185162A1, “Substituted diketopiperazines as oxytocin receptor antagonists” (Koninklijke Philips Electronics, N.V., priority 2004, published 2007)

target: T1, human Oxytocin-1 (hOT) receptor (Homo sapiens, UniProt P30559); assay: Determination of antagonist affinity at human Oxytocin-1 receptors using FLIPR (Assay 1); format: cell-based; details: CHO-hOT cells, [Ca2+]i response to oxytocin (EC80); mean, n>=3; read-out: hOT FLIPR fpKi mean
T1 construct: expressed in transfected cells
T1 sequence (P30559 1-389): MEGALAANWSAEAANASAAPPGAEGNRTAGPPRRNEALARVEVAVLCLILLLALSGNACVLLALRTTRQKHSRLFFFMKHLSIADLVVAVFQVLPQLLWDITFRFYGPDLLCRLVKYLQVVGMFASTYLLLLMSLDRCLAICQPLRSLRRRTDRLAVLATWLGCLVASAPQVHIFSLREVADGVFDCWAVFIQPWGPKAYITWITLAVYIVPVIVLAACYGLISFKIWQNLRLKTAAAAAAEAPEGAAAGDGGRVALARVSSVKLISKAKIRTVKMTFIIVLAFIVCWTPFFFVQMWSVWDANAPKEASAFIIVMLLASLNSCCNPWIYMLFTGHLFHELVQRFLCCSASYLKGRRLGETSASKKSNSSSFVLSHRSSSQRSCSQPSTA
Description: Determination of Antagonist Affinity at Human Oxytocin-1 Receptors Using FLIPR
Adherent Chinese Hamster Ovary (CHO) cells, stably expressing the recombinant human Oxytocin-1 (hOT) receptor, were maintained in culture in DMEM:F12 medium (Sigma, cat no D6421), supplemented with 10% heat inactivated foetal calf serum (Gibco/Invitrogen, cat. no. 01000-147), 2 mM L-glutamine (Gibco/Invitrogen, cat. no. 25030-024) and 0.2 mg/ml G418 (Gibco/Invitrogen, cat no. 10131-027). Cells were grown as monolayers under 95%:5% air:CO2 at 37° C. and passaged every 3-4 days using TrypLE™ Express (Gibco/Invitrogen, cat no. 12604-013).
Measurement of [Ca^2+]i Using the FLIPR™
CHO-hOT cells were seeded into black walled clear-base 384-well plates (Nunc) at a density of 10,000 cells per well in culture medium as described above and maintained overnight (95%:5% air:CO2 at 37° C.). After removal of culture medium, cells were incubated for 1 h at 37° C. in Tyrode's medium (NaCl, 145 mM; KCl, 2.5 mM; HEPES, 10 mM; Glucose, 10 mM; MgCl2, 1.2 mM; CaCl2, 1.5 mM) containing probenacid (0.7 mg/ml), the cytoplasmic calcium indicator, Fluo-4 (4 uM; Teflabs, USA) and the quenching agent Brilliant Black (250 uM; Molecular Devices, UK). Cells were then incubated for an additional 30 min at 37° C. with either buffer alone or buffer containing OT antagonist, before being placed into a FLIPR™ (Molecular Devices, UK) to monitor cell fluorescence (λex=488 nm, λEM=540 nm) before and after the addition of a submaximal concentration of oxytocin (EC80).
Functional responses using FLIPR were analysed using Activity Base Version 5.0.10. Data are reported as mean values, wherein number of times tested (n) is greater than or equal to 3.

Row | SMILES | Ki [nM]
1 | Cc1ccc([C@H](C(=O)N(C)C)N2C(=O)[C@@H](C3Cc4ccccc4C3)NC(=O)[C@H]2CC(C)C)cn1 [Comparator X, (2R)-2-[(3R,6R)-3-(2,3-dihydro-1H-inden-2-yl)-6-isobutyl-2,5-dioxopiperazin-1-yl]-N,N-dimethyl-2-(6-methylpyridin-3-yl)ethanamide, reference compound] | 7.94 to 25.1
2 | Cc1nc([C@H](C(=O)N2CCOCC2)N2C(=O)[C@@H](C3Cc4ccccc4C3)NC(=O)[C@H]2CC(C)C)co1 [Comparator Y, (3R,6R)-3-(2,3-dihydro-1H-inden-2-yl)-1-[(1R)-1-(2-methyl-1,3-oxazol-4-yl)-2-(4-morpholinyl)-2-oxoethyl]-6-(2-methylpropyl)-2,5-piperazinedione, reference compound] | 31.6 to 100
3 | CCC(CC)[C@@H]1C(=O)N[C@H](C2Cc3ccccc3C2)C(=O)N1[C@@H](C(=O)NC)c1ccc(C)nc1 [Example 1, (2R)-2-[(3R,6R)-3-(2,3-Dihydro-1H-inden-2-yl)-6-(1-ethylpropyl)-2,5-dioxo-1-piperazinyl]-N-methyl-2-(6-methyl-3-pyridinyl)ethanamide] | 2 to 6.31
4 | CCC(CC)[C@@H]1C(=O)N[C@H](C2Cc3ccccc3C2)C(=O)N1[C@@H](C(=O)N(C)C)c1ccc(C)nc1 [Example 2, (2R)-2-[(3R,6R)-3-(2,3-Dihydro-1H-inden-2-yl)-6-(1-ethylpropyl)-2,5-dioxo-1-piperazinyl]-N,N-dimethyl-2-(6-methyl-3-pyridinyl)ethanamide] | 0.501 to 1.58
5 | CCC(CC)[C@@H]1C(=O)N[C@H](C2Cc3ccccc3C2)C(=O)N1[C@@H](C(=O)NC)c1ccc(C)nc1C [Example 3, (2R)-2-[(3R,6R)-3-(2,3-Dihydro-1H-inden-2-yl)-6-(1-ethylpropyl)-2,5-dioxo-1-piperazinyl]-2-(2,6-dimethyl-3-pyridinyl)-N-methylethanamide] | 0.501 to 1.58
6 | CCC(CC)[C@@H]1C(=O)N[C@H](C2Cc3ccccc3C2)C(=O)N1[C@@H](C(=O)N(C)C)c1ccc(C)nc1C [Example 4, (2R)-2-[(3R,6R)-3-(2,3-Dihydro-1H-inden-2-yl)-6-(1-ethylpropyl)-2,5-dioxo-1-piperazinyl]-2-(2,6-dimethyl-3-pyridinyl)-N,N-dimethylethanamide] | 0.501 to 1.58
7 | CCC(CC)[C@@H]1C(=O)N[C@H](C2Cc3ccccc3C2)C(=O)N1[C@@H](C(=O)N1CCOCC1)c1ccc(C)nc1C [Example 5, (3R,6R)-3-(2,3-Dihydro-1H-inden-2-yl)-1-[(1R)-1-(2,6-dimethyl-3-pyridinyl)-2-(4-morpholinyl)-2-oxoethyl]-6-(1-ethylpropyl)-2,5-piperazinedione] | ≤ 0.398
8 | CCC(CC)[C@@H]1C(=O)N[C@H](C2Cc3ccccc3C2)C(=O)N1[C@@H](C(=O)NC)c1ccc2c(cnn2C)c1 [Example 6, (2R)-2-[(3R,6R)-3-(2,3-Dihydro-1H-inden-2-yl)-6-(1-ethylpropyl)-2,5-dioxo-1-piperazinyl]-N-methyl-2-(1-methyl-1H-indazol-5-yl)acetamide] | ≤ 0.398
9 | CCC(CC)[C@@H]1C(=O)N[C@H](C2Cc3ccccc3C2)C(=O)N1[C@@H](C(=O)N(C)C)c1ccc2c(cnn2C)c1 [Example 7, (2R)-2-[(3R,6R)-3-(2,3-Dihydro-1H-inden-2-yl)-6-(1-ethylpropyl)-2,5-dioxo-1-piperazinyl]-N,N-dimethyl-2-(1-methyl-1H-indazol-5-yl)ethanamide] | ≤ 0.398
10 | CCC(CC)[C@@H]1C(=O)N[C@H](C2Cc3ccccc3C2)C(=O)N1[C@@H](C(=O)N1CCOCC1)c1ccc2c(cnn2C)c1 [Example 8, (3R,6R)-3-(2,3-Dihydro-1H-inden-2-yl)-6-(1-ethylpropyl)-1-[(1R)-1-(1-methyl-1H-indazol-5-yl)-2-(4-morpholinyl)-2-oxoethyl]-2,5-piperazinedione] | ≤ 0.398
11 | CCC(CC)[C@@H]1C(=O)N[C@H](C2Cc3ccccc3C2)C(=O)N1[C@@H](C(=O)N1CCOCC1)c1coc(C)n1 [Example 9, (3R,6R)-3-(2,3-Dihydro-1H-inden-2-yl)-6-(1-ethylpropyl)-1-[(1R)-1-(2-methyl-1,3-oxazol-4-yl)-2-(4-morpholinyl)-2-oxoethyl]-2,5-piperazinedione] | 0.501 to 1.58
